Reference: patent US8134015B2, “Compound inhibiting in vivo phosphorous transport and medicine containing the same” (Kyowa Hakko Kirin Co., Ltd., priority 2003, dated 2012)

molecular target: T1, rat NaPi-2b (Rattus norvegicus, UniProt Q9JJ09); test: Sodium-dependent phosphate uptake of Xenopus oocytes which expressed NaPi-2b (32P); type: cell-based; settings: Xenopus oocytes expressing rat NaPi-2b, 32P radioactive phosphorus; read-out: IC50 (phosphate uptake inhibitory activity)
T1 construct: expressed in transfected cells; host or cells: Xenopus oocytes injected with cRNA
T1 sequence (Q9JJ09 1-695): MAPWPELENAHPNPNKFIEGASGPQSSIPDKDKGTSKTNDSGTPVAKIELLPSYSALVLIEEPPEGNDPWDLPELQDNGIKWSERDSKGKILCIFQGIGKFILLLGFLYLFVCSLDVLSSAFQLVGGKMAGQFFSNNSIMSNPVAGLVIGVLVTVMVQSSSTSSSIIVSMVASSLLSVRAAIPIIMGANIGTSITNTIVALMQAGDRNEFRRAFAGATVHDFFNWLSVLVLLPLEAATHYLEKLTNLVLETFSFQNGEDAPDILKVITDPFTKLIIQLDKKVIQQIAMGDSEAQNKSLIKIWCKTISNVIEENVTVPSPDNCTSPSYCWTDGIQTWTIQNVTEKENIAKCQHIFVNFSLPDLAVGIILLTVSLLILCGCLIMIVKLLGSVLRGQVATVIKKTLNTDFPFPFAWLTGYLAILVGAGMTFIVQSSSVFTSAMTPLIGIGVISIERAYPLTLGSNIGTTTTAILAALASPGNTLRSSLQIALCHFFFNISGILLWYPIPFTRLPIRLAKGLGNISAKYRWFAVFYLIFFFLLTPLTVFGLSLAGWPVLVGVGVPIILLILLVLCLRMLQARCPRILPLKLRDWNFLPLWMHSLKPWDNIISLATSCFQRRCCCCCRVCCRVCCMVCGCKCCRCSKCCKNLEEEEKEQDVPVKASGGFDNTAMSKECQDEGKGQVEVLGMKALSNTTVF
In short: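 Inhibition at 300 μM and 100 μM was read off one inhibition curve of 32P phosphate uptake. Uptake was measured in Xenopus oocytes cultured 2 days after injection of cRNA for cloned rat NaPi-2b.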

Row | SMILES | IC50
1 | CCN(CC)CCN(C)Cc1cccc(C(=O)Nc2ccc(I)cc2C(=O)N/N=C/c2cccc(F)c2)c1 [Compound 472, 3-{[(2-Diethylamino-ethyl)-methyl-amino]-methyl}-N-[2-(3-fluoro-benzylidene-hydrazinocarbonyl)-4-iodo-phenyl]-benzamide] | < 3 µM
2 | CCN(CC)CCN(C)Cc1cccc(C(=O)Nc2ccc(I)cc2C(=O)N/N=C/c2ccc(F)cc2)c1 [Compound 473, 3-{[(2-Diethylamino-ethyl)-methyl-amino]-methyl}-N-[2-(4-fluoro-benzylidene-hydrazinocarbonyl)-4-iodo-phenyl]-benzamide] | < 3 µM
3 | CCN(CC)CCN(C)Cc1cccc(C(=O)Nc2ccc(I)cc2C(=O)N/N=C/c2cccc(C)c2)c1 [Compound 474, 3-{[(2-Diethylamino-ethyl)-methyl-amino]-methyl}-N-[4-iodo-2-(3-methyl-benzylidene-hydrazinocarbonyl)-phenyl]-benzamide] | < 3 µM
4 | CCN(CC)CCN(C)Cc1cccc(C(=O)Nc2ccc(I)cc2C(=O)N/N=C/c2ccc(C)cc2)c1 [Compound 475, 3-{[(2-Diethylamino-ethyl)-methyl-amino]-methyl}-N-[4-iodo-2-(4-methyl-benzylidene-hydrazinocarbonyl)-phenyl]-benzamide] | < 3 µM
5 | CCN(CC)CCN(C)Cc1cccc(C(=O)Nc2ccc(I)cc2C(=O)N/N=C/c2ccc(C)c(C)c2)c1 [Compound 476, 3-{[(2-Diethylamino-ethyl)-methyl-amino]-methyl}-N-[2-(3,4-dimethyl-benzylidene-hydrazinocarbonyl)-4-iodo-phenyl]-benzamide] | < 3 µM
6 | CCN(CC)CCN(C)Cc1cccc(C(=O)Nc2ccc(I)cc2C(=O)N/N=C/c2ccc(Cl)c(C(F)(F)F)c2)c1 [Compound 477, N-[2-(4-chloro-3-trifluoromethyl-benzylidene-hydrazinocarbonyl)-4-iodo-phenyl]-3-{[(2-diethylamino-ethyl)-methyl-amino]-methyl}-benzamide] | < 3 µM
7 | CCN(CC)CCN(C)Cc1cccc(C(=O)Nc2ccc(I)cc2C(=O)N/N=C/c2cccc(OC)c2)c1 [Compound 478, 3-{[(2-Diethylamino-ethyl)-methyl-amino]-methyl}-N-[4-iodo-2-(3-methoxy-benzylidene-hydrazinocarbonyl)-phenyl]-benzamide] | < 3 µM
8 | CCN(CC)CCN(C)Cc1cccc(C(=O)Nc2ccc(I)cc2C(=O)N/N=C/c2ccc(OC)cc2)c1 [Compound 479, 3-{[(2-Diethylamino-ethyl)-methyl-amino]-methyl}-N-[4-iodo-2-(4-methoxy-benzylidene-hydrazinocarbonyl)-phenyl]-benzamide] | < 3 µM
9 | CCN(CC)CCN(C)Cc1cccc(C(=O)Nc2ccc(I)cc2C(=O)N/N=C/c2cccc(O)c2)c1 [Compound 480, 3-{[(2-Diethylamino-ethyl)-methyl-amino]-methyl}-N-[2-(3-hydroxy-benzylidene-hydrazinocarbonyl)-4-iodo-phenyl]-benzamide] | < 3 µM
10 | CCN(CC)CCN(C)Cc1cccc(C(=O)Nc2ccc(I)cc2C(=O)N/N=C/c2ccc(O)cc2)c1 [Compound 481, 3-{[(2-Diethylamino-ethyl)-methyl-amino]-methyl}-N-[2-(4-hydroxy-benzylidene-hydrazinocarbonyl)-4-iodo-phenyl]-benzamide] | 12.1 µM
11 | O=C(Nc1ccc(I)cc1C(=O)N/N=C/c1cccc(F)c1)c1cccc(CN2CCC(N3CCCCC3)CC2)c1 [Compound 482, 3-[1,4′]Bipiperidinyl-1′-ylmethyl-N-[2-(3-fluoro-benzylidene-hydrazinocarbonyl)-4-iodo-phenyl]-benzamide] | < 3 µM
12 | O=C(Nc1ccc(I)cc1C(=O)N/N=C/c1ccc(F)cc1)c1cccc(CN2CCC(N3CCCCC3)CC2)c1 [Compound 483, 3-[1,4′]Bipiperidinyl-1′-ylmethyl-N-[2-(4-fluoro-benzylidene-hydrazinocarbonyl)-4-iodo-phenyl]-benzamide] | < 3 µM
13 | Cc1cccc(/C=N/NC(=O)c2cc(I)ccc2NC(=O)c2cccc(CN3CCC(N4CCCCC4)CC3)c2)c1 [Compound 484, 3-[1,4′]Bipiperidinyl-1′-ylmethyl-N-[4-iodo-2-(3-methyl-benzylidene-hydrazinocarbonyl)-phenyl]-benzamide] | < 3 µM
14 | Cc1ccc(/C=N/NC(=O)c2cc(I)ccc2NC(=O)c2cccc(CN3CCC(N4CCCCC4)CC3)c2)cc1 [Compound 485, 3-[1,4′]Bipiperidinyl-1′-ylmethyl-N-[4-iodo-2-(4-methyl-benzylidene-hydrazinocarbonyl)-phenyl]-benzamide] | < 3 µM
15 | Cc1ccc(/C=N/NC(=O)c2cc(I)ccc2NC(=O)c2cccc(CN3CCC(N4CCCCC4)CC3)c2)cc1C [Compound 486, 3-[1,4′]Bipiperidinyl-1′-ylmethyl-N-[2-(3,4-dimethyl-benzylidene-hydrazinocarbonyl)-4-iodo-phenyl]-benzamide] | < 3 µM
16 | O=C(Nc1ccc(I)cc1C(=O)N/N=C/c1ccc(Cl)c(C(F)(F)F)c1)c1cccc(CN2CCC(N3CCCCC3)CC2)c1 [Compound 487, 3-[1,4′]Bipiperidinyl-1′-ylmethyl-N-[2-(4-chloro-3-trifluoromethyl-benzylidene-hydrazinocarbonyl)-4-iodo-phenyl]-benzamide] | < 3 µM
17 | COc1cccc(/C=N/NC(=O)c2cc(I)ccc2NC(=O)c2cccc(CN3CCC(N4CCCCC4)CC3)c2)c1 [Compound 488, 3-[1,4′]Bipiperidinyl-1′-ylmethyl-N-[4-iodo-2-(3-methoxy-benzylidene-hydrazinocarbonyl)-phenyl]-benzamide] | < 3 µM
18 | COc1ccc(/C=N/NC(=O)c2cc(I)ccc2NC(=O)c2cccc(CN3CCC(N4CCCCC4)CC3)c2)cc1 [Compound 489, 3-[1,4′]Bipiperidinyl-1′-ylmethyl-N-[4-iodo-2-(4-methoxy-benzylidene-hydrazinocarbonyl)-phenyl]-benzamide] | < 3 µM
19 | O=C(Nc1ccc(I)cc1C(=O)N/N=C/c1cccc(O)c1)c1cccc(CN2CCC(N3CCCCC3)CC2)c1 [Compound 490, 3-[1,4′]Bipiperidinyl-1′-ylmethyl-N-[2-(3-hydroxy-benzylidene-hydrazinocarbonyl)-4-iodo-phenyl]-benzamide] | < 3 µM
20 | O=C(Nc1ccc(I)cc1C(=O)N/N=C/c1ccc(O)cc1)c1cccc(CN2CCC(N3CCCCC3)CC2)c1 [Compound 491, 3-[1,4′]Bipiperidinyl-1′-ylmethyl-N-[2-(4-hydroxy-benzylidene-hydrazinocarbonyl)-4-iodo-phenyl]-benzamide] | < 3 µM
21 | Cc1ccc(CNNC(=O)c2cc(Cl)ccc2NC(=O)c2cccc(CSCCO)c2)cc1C [Compound 492, N-{4-Chloro-2-[N′-(3,4-dimethyl-benzyl)-hydrazinocarbonyl]-phenyl}-3-(2-hydroxy-ethylsulfanylmethyl)-benzamide] | < 3 µM
22 | Cc1ccc(C=NNC(=O)c2cc(Cl)ccc2NC(=O)c2cccc(CS(=O)(=O)CCO)c2)cc1C [Compound 493, N-[4-Chloro-2-(3,4-dimethyl-benzylidene-hydrazinocarbonyl)-phenyl]-3-(2-hydroxy-ethanesulfonylmethyl)-benzamide] | < 3 µM
23 | Cc1ccc(/C=N/NC(=O)c2cc(Br)ccc2NC(=O)c2ccc(C)cc2)cc1 [Compound 494, N-[4-Bromo-2-(4-methyl-benzylidene-hydrazinocarbonyl)-phenyl]-4-methyl-benzamide] | 2.07 µM
24 | O=C(Nc1ccc(Br)cc1C(=O)N/N=C/c1cccc(F)c1)c1ccccn1 [Compound 495, Pyridin-2-carboxylic acid[4-bromo-2-(3-fluoro-benzylidene-hydrazinocarbonyl)-phenyl]-amide] | 0.35 µM
25 | O=C(Nc1ccc(Br)cc1C(=O)N/N=C/c1ccc(F)cc1)c1ccccn1 [Compound 496, Pyridin-2-carboxylic acid [4-bromo-2-(4-fluoro-benzylidene-hydrazinocarbonyl)-phenyl]-amide] | 0.64 µM
26 | Cc1cccc(/C=N/NC(=O)c2cc(Br)ccc2NC(=O)c2ccccn2)c1 [Compound 497, Pyridin-2-carboxylic acid [4-bromo-2-(3-methyl-benzylidene-hydrazinocarbonyl)-phenyl]-amide] | 0.51 µM
27 | Cc1ccc(/C=N/NC(=O)c2cc(Br)ccc2NC(=O)c2ccccn2)cc1 [Compound 498, Pyridin-2-carboxylic acid [4-bromo-2-(4-methyl-benzylidene-hydrazinocarbonyl)-phenyl]-amide] | 0.6 µM
28 | Cc1ccc(/C=N/NC(=O)c2cc(Br)ccc2NC(=O)c2ccccn2)cc1C [Compound 499, Pyridin-2-carboxylic acid [4-bromo-2-(3,4-dimethyl-benzylidene-hydrazinocarbonyl)-phenyl]-amide] | 0.98 µM
29 | O=C(Nc1ccc(Br)cc1C(=O)N/N=C/c1ccc(Cl)c(C(F)(F)F)c1)c1ccccn1 [Compound 500, Pyridin-2-carboxylic acid [4-bromo-2-(4-chloro-3-trifluoromethyl-benzylidene-hydrazinocarbonyl)-phenyl]-amide] | 0.35 µM
